In PubChem BioAssay (NCI):
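Exposure lasted 48 hours, with cells grown in 96-well plates and compounds tested at five concentrations. TGI denotes the concentration required for complete inhibition of growth.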

Assays:
Assay in all cases: NCI anticancer screen, dose series, 48 h
TK-10 renal = system: TK-10 renal
SN12C renal = system: SN12C renal
OVCAR-8 ovarian = system: OVCAR-8 ovarian
SK-MEL-28 melanoma = system: SK-MEL-28 melanoma
SF-539 CNS = system: SF-539 CNS
RXF 393 renal = system: RXF 393 renal
DU-145 prostate = system: DU-145 prostate
SK-MEL-5 melanoma = system: SK-MEL-5 melanoma
UACC-257 melanoma = system: UACC-257 melanoma
MCF7 breast = system: MCF7 breast
CCRF-CEM leukemia = system: CCRF-CEM leukemia
UACC-62 melanoma = system: UACC-62 melanoma
HCC-2998 colon = system: HCC-2998 colon
SK-OV-3 ovarian = system: SK-OV-3 ovarian
SF-268 CNS = system: SF-268 CNS
SNB-19 CNS = system: SNB-19 CNS
NCI-H23 lung = system: NCI-H23 lung
MOLT-4 leukemia = system: MOLT-4 leukemia
NCI-H522 lung = system: NCI-H522 lung
ACHN renal = system: ACHN renal
LOX IMVI melanoma = system: LOX IMVI melanoma
K-562 leukemia = system: K-562 leukemia
MALME-3M melanoma = system: MALME-3M melanoma
IGROV1 ovarian = system: IGROV1 ovarian
SF-295 CNS = system: SF-295 CNS
NCI-H226 lung = system: NCI-H226 lung
KM12 colon = system: KM12 colon
OVCAR-5 ovarian = system: OVCAR-5 ovarian
OVCAR-3 ovarian = system: OVCAR-3 ovarian
NCI-H460 lung = system: NCI-H460 lung
HL-60(TB) leukemia = system: HL-60(TB) leukemia
PC-3 prostate = system: PC-3 prostate
T-47D breast = system: T-47D breast
SK-MEL-2 melanoma = system: SK-MEL-2 melanoma
HOP-62 NSCLC = system: HOP-62 NSCLC
MDA-MB-231 breast = system: MDA-MB-231 breast
M14 melanoma = system: M14 melanoma
COLO 205 colon = system: COLO 205 colon
MDA-MB-435 = system: MDA-MB-435
U251 CNS = system: U251 CNS
HS 578T breast = system: HS 578T breast
HCT-116 colon = system: HCT-116 colon
EKVX NSCLC = system: EKVX NSCLC
SW-620 colon = system: SW-620 colon
CAKI-1 renal = system: CAKI-1 renal
HCT-15 colon = system: HCT-15 colon
RPMI-8226 leukemia = system: RPMI-8226 leukemia
786-0 renal = system: 786-0 renal
MDA-N = system: MDA-N
A549 NSCLC = system: A549 NSCLC
UO-31 renal = system: UO-31 renal
NCI/ADR-RES ovarian = system: NCI/ADR-RES ovarian
HOP-92 NSCLC = system: HOP-92 NSCLC
SNB-75 CNS = system: SNB-75 CNS
HT29 colon = system: HT29 colon
OVCAR-4 ovarian = system: OVCAR-4 ovarian
SR leukemia = system: SR leukemia
A498 renal = system: A498 renal
BT-549 breast = system: BT-549 breast

Measured: TGI

O=C(O)c1ccc(Nc2nc3ccc(C(F)(F)F)cc3nc2C(=O)O)cc1
> 100 µM: TK-10 renal | SN12C renal | OVCAR-8 ovarian | SK-MEL-28 melanoma | SF-539 CNS | RXF 393 renal | DU-145 prostate | SK-MEL-5 melanoma | UACC-257 melanoma | MCF7 breast | CCRF-CEM leukemia | UACC-62 melanoma | HCC-2998 colon | SK-OV-3 ovarian | SF-268 CNS | SNB-19 CNS | NCI-H23 lung | MOLT-4 leukemia | NCI-H522 lung | ACHN renal | LOX IMVI melanoma | K-562 leukemia | MALME-3M melanoma | IGROV1 ovarian | SF-295 CNS | NCI-H226 lung | KM12 colon | OVCAR-5 ovarian | OVCAR-3 ovarian | NCI-H460 lung | HL-60(TB) leukemia | PC-3 prostate | T-47D breast | SK-MEL-2 melanoma | HOP-62 NSCLC | MDA-MB-231 breast | M14 melanoma | COLO 205 colon | MDA-MB-435 | U251 CNS | HS 578T breast | HCT-116 colon | EKVX NSCLC | SW-620 colon | CAKI-1 renal | HCT-15 colon | RPMI-8226 leukemia | 786-0 renal | MDA-N | A549 NSCLC | UO-31 renal | NCI/ADR-RES ovarian | HOP-92 NSCLC | SNB-75 CNS | HT29 colon | OVCAR-4 ovarian | SR leukemia

NC1C2C=CC(C2)C1C(=O)O (configuration not stated)
> 100 µM: TK-10 renal | SN12C renal | A498 renal | OVCAR-8 ovarian | SK-MEL-28 melanoma | SF-539 CNS | RXF 393 renal | DU-145 prostate | SK-MEL-5 melanoma | MCF7 breast | BT-549 breast | CCRF-CEM leukemia | UACC-62 melanoma | SK-OV-3 ovarian | SF-268 CNS | SNB-19 CNS | NCI-H23 lung | MOLT-4 leukemia | NCI-H522 lung | ACHN renal | LOX IMVI melanoma | K-562 leukemia | MALME-3M melanoma | IGROV1 ovarian | SF-295 CNS | NCI-H226 lung | KM12 colon | OVCAR-5 ovarian | OVCAR-3 ovarian | HL-60(TB) leukemia | PC-3 prostate | T-47D breast | SK-MEL-2 melanoma | HOP-62 NSCLC | MDA-MB-231 breast | M14 melanoma | COLO 205 colon | MDA-MB-435 | U251 CNS | HS 578T breast | HCT-116 colon | EKVX NSCLC | SW-620 colon | CAKI-1 renal | HCT-15 colon | RPMI-8226 leukemia | 786-0 renal | MDA-N | A549 NSCLC | UO-31 renal | NCI/ADR-RES ovarian | HOP-92 NSCLC | SNB-75 CNS | HT29 colon | OVCAR-4 ovarian
